Entries after “also recorded” stand apart in the source; their conditions may differ. One block for each compound: values may come before it.
What was measured:
[1] = biological target: T1, TLR2 (Mus musculus, UniProt Q9QUN7); test: Pam3Cys-induced contact lens corneal inflammation (neutrophil infiltrate, reflectivity); format: in vivo, C57BL/6 mice
T1 construct: Corneas of C57BL/6 mice were abraded with three parallel, superficial scratches; from tissue; host or cells: cornea of living C57BL/6 mice

[2] = biological target: T1, TLR2; test: Pam3Cys-induced CXCL1/KC production in the cornea, mouse contact lens model; format: in vivo, C57BL/6 mice; conditions: topical pre-treatment 1 h before Pam3Cys; ELISA 4 h after stimulation; vs placebo
Description: (§5) C57BL/6 mice (6-8 weeks old) were obtained from The Jackson Laboratory (Bar Harbor, Me.). Mice were anesthetized by intraperitoneal injection of 0.4 ml 2,2,2-tribromoethanol (TBE). A 26 gauge needle was used to make three parallel abrasions in the corneal epithelium as described in our previous studies. Eritoran tetrasodium or placebo at concentrations indicated for each experiment was added topically, and a 2 mm diameter punch from a normal contact lens (LOTRAFILCON A; CIBA VISION) was added to the corneal surface (See FIG. 1). After an additional 1 h, the lens was briefly removed, and 2 μl LPS (20 mg/ml) or Pam3Cys (5 mg/ml) was placed on the corneal surface. The contact lens button was then replaced, and after an additional 1 h, the lens was removed and the mice were allowed to recover from anesthesia. In some experiments, the order of agonist and antagonist was reversed, or both were given simultaneously.
Briefly, Corneas of C57BL/6 mice were abraded with three parallel, superficial scratches. 2 μl of 350 mg/ml Eritoran or placebo was added topically, and a 2 mm diameter punch from a soft contact lens was placed on the corneal surface as shown in FIG. 1. […] After 1 h, the lens was removed, and 3 h later (4 h after stimulation), and corneas were dissected, homogenized, and CXCL1/KC was measured by ELISA. […]

[3] = biological target: T2, TLR4 (Mus musculus, UniProt Q9JHF9+Q9QUK6); parameters: species or system C57BL/6 mice; conditions: in vivo
T2 construct: Corneas of C57BL/6 mice were abraded with three parallel, superficial scratches; from tissue; host or cells: cornea of living C57BL/6 mice
T2 sequence (Q9QUK6 26-835): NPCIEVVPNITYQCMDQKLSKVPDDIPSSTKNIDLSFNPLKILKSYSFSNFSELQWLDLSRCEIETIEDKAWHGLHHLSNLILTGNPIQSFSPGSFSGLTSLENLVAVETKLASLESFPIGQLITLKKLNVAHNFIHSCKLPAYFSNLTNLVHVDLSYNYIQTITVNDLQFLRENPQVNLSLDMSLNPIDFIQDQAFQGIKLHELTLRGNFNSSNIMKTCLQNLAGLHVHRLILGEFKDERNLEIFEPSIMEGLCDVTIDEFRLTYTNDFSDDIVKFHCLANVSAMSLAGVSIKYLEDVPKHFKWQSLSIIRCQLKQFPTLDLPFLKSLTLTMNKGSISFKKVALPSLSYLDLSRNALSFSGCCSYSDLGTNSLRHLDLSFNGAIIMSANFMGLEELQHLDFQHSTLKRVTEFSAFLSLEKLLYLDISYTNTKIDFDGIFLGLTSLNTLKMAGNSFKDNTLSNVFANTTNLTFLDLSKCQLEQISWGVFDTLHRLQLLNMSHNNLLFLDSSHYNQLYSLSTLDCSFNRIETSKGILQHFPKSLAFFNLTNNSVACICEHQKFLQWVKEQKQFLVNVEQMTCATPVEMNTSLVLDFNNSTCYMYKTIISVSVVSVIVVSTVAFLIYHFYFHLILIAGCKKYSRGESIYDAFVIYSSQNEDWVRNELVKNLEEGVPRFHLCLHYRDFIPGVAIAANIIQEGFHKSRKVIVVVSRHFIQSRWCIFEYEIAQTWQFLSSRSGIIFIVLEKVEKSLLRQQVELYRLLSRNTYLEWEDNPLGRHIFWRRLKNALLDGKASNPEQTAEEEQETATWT
T2 sequence (Q9JHF9 19-160): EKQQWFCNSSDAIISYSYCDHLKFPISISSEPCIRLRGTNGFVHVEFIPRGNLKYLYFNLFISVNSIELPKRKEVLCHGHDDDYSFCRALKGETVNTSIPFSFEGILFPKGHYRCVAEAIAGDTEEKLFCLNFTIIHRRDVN
Description: as §5
Briefly, Corneas of C57BL/6 mice were abraded with three parallel, superficial scratches. 2 μl of 350 mg/ml Eritoran or placebo was added topically, and a 2 mm diameter punch from a soft contact lens was placed on the corneal surface as shown in FIG. 1. […] After 1 h, the lens was removed, and 3 h later (4 h after stimulation), and corneas were dissected, homogenized, and CXCL1/KC was measured by ELISA.

[4] = biological target: T3, TLR4 (Homo sapiens, UniProt O00206+Q9Y6Y9); test: LPS-induced IL-8 production by human corneal epithelial cells (HCE-T); format: cell-based; parameters: endogenous in cells; host or cells: HL-60 (five days in 1.2% DMSO); conditions: for LPS-induced IL-8 production: HCE-T cells, 900 ng/ml LPS with 0.2 μg/ml MD-2, 24 h, ELISA
Description: (§1) The SV-40 transfected human corneal epithelial cell line (HCE-T) was obtained from ATCC. Before stimulation, HCE cells were plated into 48 well plates and underwent epidermal growth factor starvation overnight. As HCE cells require exogenous MD-2 to respond to LPS, cells were incubated 1 h with 200 ng/ml recombinant human MD-2 (R&D Systems, Minneapolis, Minn.) prior to stimulation with ultrapure LPS (TLR4-specific, Escherichia coli K12, Invivogen; San Diego, Calif.). HCE cells were also incubated with Pam3CysK4 (EMC Microcollections, Germany) in the absence of MD-2.
(§2) All cells were incubated with eritoran or placebo, followed by stimulation with LPS or Pam3CysK4 at optimal concentrations for each cells line (noted in results). After 3 h, cell-free supernatants were collected, and CXCL8/IL-8 was measured by ELISA (R&D Systems).
(§3) Cell lines derived from human corneal epithelial cells (HCE-T), macrophages (U937) and neutrophils (HL-60) were stimulated with LPS or Pam3Cys in the presence of eritoran tetrasodium or placebo. After 3 h (U937 and HL-60 cells) or 24 h (HCE-T cell), IL-8 levels in culture supernatants were quantified by ELISA. […] FIGS. 16 and 17 show macrophages stimulated with 10 ng/ml LPS or 500 ng/ml Pam3Cys in the presence of Eritoran or placebo. FIGS. 18 and 19 show neutrophils stimulated with 1 ng/ml LPS or 500 ng/ml Pam3Cys and Eritoran or placebo. LPS concentrations were based on preliminary data showing optimal IL-8 production. […] Graphs are mean+/−SEM of three wells per sample. Experiments were repeated three times with similar results.

[5] = biological target: T4, TLR2 (Homo sapiens, UniProt O60603); test: Pam3Cys-induced IL-8 production by human corneal epithelial cells (HCE-T); format: cell-based; conditions: 500 ng/ml Pam3Cys, 24 h
T4 construct: endogenous in cells; host or cells: HCE-T human corneal epithelial cell line (ATCC)
Description: as §1, §2
Cell lines derived from human corneal epithelial cells (HCE-T), macrophages (U937) and neutrophils (HL-60) were stimulated with LPS or Pam3Cys in the presence of eritoran tetrasodium or placebo. After 3 h (U937 and HL-60 cells) or 24 h (HCE-T cell), IL-8 levels in culture supernatants were quantified by ELISA. […] FIGS. 16 and 17 show macrophages stimulated with 10 ng/ml LPS or 500 ng/ml Pam3Cys in the presence of Eritoran or placebo. FIGS. 18 and 19 show neutrophils stimulated with 1 ng/ml LPS or 500 ng/ml Pam3Cys and Eritoran or placebo. […]

[6] = biological target: T2, TLR4; parameters: species or system C57BL/6 mice; conditions: in vivo; remark: listed apart in the source
[7] = biological target: T4, TLR2; test: Pam3Cys-induced IL-8 production by macrophages (U937); format: cell-based; conditions: 500 ng/ml Pam3Cys, 3 h
Description: (§4) The U937 macrophage-cell line was cultured in RPMI medium (GIBCO) with 10% FBS, and 5×10^4 cells/well were added to 96-well plates. The human neutrophil-like cell line (HL-60) was maintained in RPMI with 10% FBS, and incubated five days in 1.2% DMSO to generate the neutrophil phenotype.
as §2, §3

[8] = test system: corneal epithelium
Description: The cell viability in vitro was measured by trypan blue. The corneal sections were incubated with terminal deoxynucleotidyl transferase-mediated dUTP nick end labeling (TUNEL) reagents according to manufacturer's directions (Roche, Penzberg, Germany), and the number of TUNEL positive cells in the cornea was quantified by fluorescence microscopy.
Mice were pre-treated with 2.2 μg eritoran tetrasodium prior to LPS, as described above, and eyes were snap frozen. We used a TUNEL assay on 5 μm corneal sections to identify apoptotic cells. Total cells were identified using DAPI.

[9] = biological target: T3, TLR4; test: LPS-induced IL-8 production by neutrophils (HL-60); format: cell-based; parameters: endogenous in cells; host or cells: HL-60 (five days in 1.2% DMSO); conditions: for LPS-induced IL-8 production: HL-60 neutrophils, 1 ng/ml LPS, 3 h
Description: as §4, §2, §3

[10] = biological target: T5, TLR4/MD-2 (Mus musculus, UniProt Q9JHF9+Q9QUK6); parameters: species or system C57BL/6 mice; conditions: in vivo
T5 construct: from tissue; host or cells: cornea of living C57BL/6 mice
T5 sequence (Q9QUK6 26-835): T2 sequence (Q9QUK6 26-835)
T5 sequence (Q9JHF9 19-160): T2 sequence (Q9JHF9 19-160)

[11] = biological target: T3, TLR4; test: LPS-induced IL-8 production by macrophages (U937); format: cell-based; parameters: endogenous in cells; conditions: for LPS-induced IL-8 production: U937 macrophages, 10 ng/ml LPS, 3 h
Description: as §4, §2, §3

[12] = biological target: T4, TLR2; test: Pam3Cys-induced IL-8 production by neutrophils (HL-60); format: cell-based; conditions: HL-60 neutrophils; 500 ng/ml Pam3Cys; 3 h
Description: as §4, §2, §3

[13] = test system: Gram negative Lipid A; conditions: cited from earlier work
[14] = pretreatment with the highest concentration, Pam3Cys stimulation

T4 sequence (O60603 21-784): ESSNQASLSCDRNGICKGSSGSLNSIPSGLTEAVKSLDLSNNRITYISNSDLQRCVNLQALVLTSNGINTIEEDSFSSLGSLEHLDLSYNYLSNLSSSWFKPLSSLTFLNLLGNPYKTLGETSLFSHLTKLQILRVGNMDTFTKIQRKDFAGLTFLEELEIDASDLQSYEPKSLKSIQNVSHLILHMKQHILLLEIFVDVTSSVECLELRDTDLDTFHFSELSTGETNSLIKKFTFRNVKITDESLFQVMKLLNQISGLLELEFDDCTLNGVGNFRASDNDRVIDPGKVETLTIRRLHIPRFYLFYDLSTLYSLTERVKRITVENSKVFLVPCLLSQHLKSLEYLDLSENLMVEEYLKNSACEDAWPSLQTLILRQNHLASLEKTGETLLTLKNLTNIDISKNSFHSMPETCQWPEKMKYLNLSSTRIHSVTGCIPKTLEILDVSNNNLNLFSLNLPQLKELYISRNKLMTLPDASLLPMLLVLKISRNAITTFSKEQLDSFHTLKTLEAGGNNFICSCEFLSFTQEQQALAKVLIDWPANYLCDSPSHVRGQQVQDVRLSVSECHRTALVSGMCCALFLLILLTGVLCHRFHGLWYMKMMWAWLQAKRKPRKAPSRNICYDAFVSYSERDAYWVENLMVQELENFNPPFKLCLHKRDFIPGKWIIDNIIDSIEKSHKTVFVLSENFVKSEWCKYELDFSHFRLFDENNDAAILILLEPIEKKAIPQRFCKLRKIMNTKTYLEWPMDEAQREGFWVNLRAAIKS
T1 sequence (Q9QUN7 25-784): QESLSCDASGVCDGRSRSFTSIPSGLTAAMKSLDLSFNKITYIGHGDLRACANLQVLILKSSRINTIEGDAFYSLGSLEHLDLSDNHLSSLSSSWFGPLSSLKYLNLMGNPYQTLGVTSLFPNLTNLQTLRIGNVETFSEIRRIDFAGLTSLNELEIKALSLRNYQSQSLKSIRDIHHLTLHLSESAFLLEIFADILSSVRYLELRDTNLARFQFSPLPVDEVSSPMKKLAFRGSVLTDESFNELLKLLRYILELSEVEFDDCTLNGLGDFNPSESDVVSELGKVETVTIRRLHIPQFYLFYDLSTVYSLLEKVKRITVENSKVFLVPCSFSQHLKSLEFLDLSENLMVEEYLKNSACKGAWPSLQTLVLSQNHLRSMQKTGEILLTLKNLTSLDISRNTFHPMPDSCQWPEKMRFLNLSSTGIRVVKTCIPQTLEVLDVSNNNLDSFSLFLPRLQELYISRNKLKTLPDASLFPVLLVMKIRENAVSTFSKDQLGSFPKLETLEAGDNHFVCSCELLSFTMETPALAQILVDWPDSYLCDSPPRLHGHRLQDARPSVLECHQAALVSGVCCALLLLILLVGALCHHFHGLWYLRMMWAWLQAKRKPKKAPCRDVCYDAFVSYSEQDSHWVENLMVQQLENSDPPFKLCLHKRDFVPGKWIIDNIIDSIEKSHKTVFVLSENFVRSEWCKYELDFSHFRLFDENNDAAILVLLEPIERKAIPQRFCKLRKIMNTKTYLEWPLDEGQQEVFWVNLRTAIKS
T3 sequence (O00206 24-839): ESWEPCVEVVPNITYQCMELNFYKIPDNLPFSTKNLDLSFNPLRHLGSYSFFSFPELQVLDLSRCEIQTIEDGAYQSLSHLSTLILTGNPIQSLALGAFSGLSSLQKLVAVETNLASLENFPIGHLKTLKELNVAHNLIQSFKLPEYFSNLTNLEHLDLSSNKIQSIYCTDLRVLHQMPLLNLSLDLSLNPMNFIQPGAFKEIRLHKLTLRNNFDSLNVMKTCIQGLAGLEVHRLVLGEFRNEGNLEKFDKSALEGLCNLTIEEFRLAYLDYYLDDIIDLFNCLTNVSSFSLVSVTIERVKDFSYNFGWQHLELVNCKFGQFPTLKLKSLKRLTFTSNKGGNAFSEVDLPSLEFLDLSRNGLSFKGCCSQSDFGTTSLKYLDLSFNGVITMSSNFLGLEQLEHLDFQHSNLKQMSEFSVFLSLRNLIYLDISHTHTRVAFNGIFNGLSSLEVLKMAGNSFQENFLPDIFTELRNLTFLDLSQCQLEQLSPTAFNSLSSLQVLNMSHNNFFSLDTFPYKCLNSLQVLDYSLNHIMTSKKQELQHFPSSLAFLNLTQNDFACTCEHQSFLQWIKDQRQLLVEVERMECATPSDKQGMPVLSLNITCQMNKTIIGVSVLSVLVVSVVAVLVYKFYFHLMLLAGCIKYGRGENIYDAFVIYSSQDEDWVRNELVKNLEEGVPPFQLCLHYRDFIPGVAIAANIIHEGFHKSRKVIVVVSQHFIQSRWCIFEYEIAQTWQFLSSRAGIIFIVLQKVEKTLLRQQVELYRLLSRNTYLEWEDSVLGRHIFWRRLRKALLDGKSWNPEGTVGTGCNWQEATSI
T3 sequence (Q9Y6Y9 19-160): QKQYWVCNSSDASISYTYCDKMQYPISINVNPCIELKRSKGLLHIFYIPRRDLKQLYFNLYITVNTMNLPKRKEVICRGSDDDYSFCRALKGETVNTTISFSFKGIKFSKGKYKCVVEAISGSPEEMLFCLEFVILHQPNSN

- neutrophil infiltration [1, 14]: no effect
- total reflectivity [1, 14]: no effect
- Pam3Cys/TLR2-induced corneal inflammation ([1]; topical pre-treatment): no effect
- CXCL1/KC in Pam3Cys-stimulated corneas [2]: no difference
- CXCL1/KC in LPS-stimulated corneas [3]: significantly inhibited
- LPS-induced IL-8 production [4]: significantly reduced
- LPS-induced IL-8 production ([4]; listed as Eritoran): dose dependent inhibition
- dose required to inhibit LPS-induced IL-8, relative to macrophage and neutrophil lines ([4]; human corneal epithelial cells with exogenous MD-2): required higher doses
- Pam3Cys-induced IL-8 production [5]: no effect
- LPS-induced corneal haze [6]: significantly reduced
- cellular infiltrate in the central corneal stroma [6]: minimal cellular infiltrate
- concentration needed to reduce neutrophil numbers by 50% [6]: 0.35 mg/mL
- effect on neutrophil numbers at concentrations lower than 1.1 mg/ml [6]: no significant effect
- minimum inhibitory concentration [6]: 350 mg/L
- neutrophil numbers per corneal section [6]: dose-dependent reduction
- second application after 3 h versus single treatment [6]: no significant difference
- Pam3Cys-induced IL-8 production [7]: no effect
- TUNEL positive cells in the corneal epithelium ([8]; 2.2 μg prior to LPS, presence or absence of LPS): no TUNEL positive cells
- LPS-induced IL-8 production [9]: significantly reduced
- LPS-induced IL-8 production ([9]; listed as Eritoran): dose dependent inhibition
- concentration that inhibited LPS-induced IL-8 ([9]; neutrophil cell line (HL-60)): 1 ng/mL
- corneal haze [10]: significantly inhibited
- corneal thickness [10]: significantly inhibited
- neutrophil infiltration [10]: significantly inhibited
- LPS-induced IL-8 production [11]: significantly reduced
- LPS-induced IL-8 production ([11]; listed as Eritoran): dose dependent inhibition
- concentration that inhibited LPS-induced IL-8 ([11]; macrophage cell line (U937)): 1 ng/mL
- Pam3Cys-induced IL-8 production [12]: no effect
Compound: CCCCCC/C=C\CCCCCCCCCC(=O)N[C@H]1[C@H](OC[C@H]2O[C@H](OP(=O)([O-])[O-])[C@H](NC(=O)CC(=O)CCCCCCCCCCC)[C@@H](OCCCCCCCCCC)[C@@H]2O)O[C@H](COC)[C@@H](OP(=O)([O-])[O-])[C@@H]1OCC[C@@H](CCCCCCC)OC.[Na+].[Na+].[Na+].[Na+] [eritoran tetrasodium]
- LPS-induced neutrophil infiltration [6]: significantly inhibited; also recorded: significantly reduced
- pro-apoptotic effect ([8]; 2.2 μg, corneal epithelium): no pro-apoptotic effect

Compound: Rhodobacter sphaeroides lipid A [RSLA]
- antagonistic activity for other Gram negative Lipid A [13]: pronounced antagonistic activity
- agonist activity ([13]; on some cell types): only minor agonist activity

Reference: US9006210B2, “Compositions and methods for treating corneal inflammation” (Case Western Reserve University, priority 2008, dated 2015)
